Calls of active or inactive are those of the source. A value given as a limit tells only on which side of the number the result lay.

The term AC50 denotes the midpoint of the concentration-response curve, whichever way the signal moves.

Test [1] deals with T1, Corticotropin-releasing factor receptor 2/Corticotropin-releasing factor-binding protein (Homo sapiens, UniProt P24387+Q13324).
T1 sequence (Q13324 whole entry): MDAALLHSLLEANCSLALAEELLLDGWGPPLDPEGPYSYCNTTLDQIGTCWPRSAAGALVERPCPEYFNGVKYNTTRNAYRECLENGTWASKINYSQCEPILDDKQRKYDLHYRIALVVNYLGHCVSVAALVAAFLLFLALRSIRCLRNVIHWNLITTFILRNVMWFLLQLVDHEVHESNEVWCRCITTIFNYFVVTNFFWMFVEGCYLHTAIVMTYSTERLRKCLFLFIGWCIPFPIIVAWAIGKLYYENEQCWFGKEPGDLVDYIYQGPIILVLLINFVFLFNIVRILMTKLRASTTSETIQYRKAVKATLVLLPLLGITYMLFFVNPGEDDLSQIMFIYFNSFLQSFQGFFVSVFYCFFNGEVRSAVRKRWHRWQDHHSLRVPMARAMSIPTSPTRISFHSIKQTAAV
T1 sequence (P24387 whole entry): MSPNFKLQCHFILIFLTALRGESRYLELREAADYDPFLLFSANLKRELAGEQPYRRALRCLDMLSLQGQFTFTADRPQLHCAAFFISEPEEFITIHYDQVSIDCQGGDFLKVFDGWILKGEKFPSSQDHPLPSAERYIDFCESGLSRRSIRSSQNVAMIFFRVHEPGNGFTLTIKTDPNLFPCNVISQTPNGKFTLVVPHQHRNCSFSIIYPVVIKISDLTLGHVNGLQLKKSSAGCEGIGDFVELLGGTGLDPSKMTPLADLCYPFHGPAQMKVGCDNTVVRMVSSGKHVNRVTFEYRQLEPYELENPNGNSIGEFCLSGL
Description: Dose Response confirmation of uHTS hits for small molecule antagonists of the CRF-binding protein and CRF-R2 receptor complex. The test is classed as functional. The settings on record: read-out: IC50_Mean.

Test [2] has as its target T1, Corticotropin-releasing factor receptor 2/Corticotropin-releasing factor-binding protein. Description: activators of CRF receptor 2 with binding protein – uHTS hits, confirmation (AID 602473). The settings on record: read-out: EC50_Mean. In kind it is functional.
The target of test [3] is Paired box protein Pax-8 (Homo sapiens, UniProt Q06710). Description: PAX8 transcriptional activity inhibition in RMG-I – RMG-I cells, luciferase, cherry-pick, dose response (AID 687027).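 Also: luciferase reporter driven by Pax8 target thyroperoxidase promoter measured by SteadyGlo luminescence.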 In kind it is functional, cell-based.
Paired box protein Pax-8, sequence (Q06710 whole entry): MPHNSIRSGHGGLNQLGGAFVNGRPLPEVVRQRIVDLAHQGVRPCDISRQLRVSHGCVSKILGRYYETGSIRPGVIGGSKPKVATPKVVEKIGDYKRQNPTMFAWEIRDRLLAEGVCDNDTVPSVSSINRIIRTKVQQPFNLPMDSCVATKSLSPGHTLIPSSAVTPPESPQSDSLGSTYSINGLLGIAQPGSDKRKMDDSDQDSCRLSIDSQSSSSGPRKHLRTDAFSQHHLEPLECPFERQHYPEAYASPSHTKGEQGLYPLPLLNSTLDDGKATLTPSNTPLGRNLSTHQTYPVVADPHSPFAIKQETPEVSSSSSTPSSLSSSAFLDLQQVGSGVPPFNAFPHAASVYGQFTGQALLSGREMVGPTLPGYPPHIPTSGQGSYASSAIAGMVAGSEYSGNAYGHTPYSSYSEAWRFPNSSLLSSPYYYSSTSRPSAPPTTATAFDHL
Test [4] in a line: Luminescence Cell-Based Dose Confirmation HTS to Identify Inhibitors of Platelet Dense Granule Release. [Related pubchem assays: 1663 (Primary HTS), 1678 (Summary of Project)]. The test is classed as functional.
Test [5] concerns the target Luciferin 4-monooxygenase (Photinus pyralis, UniProt P08659). In words: inhibition of purified Photinus pyralis luciferase – biochemical, luminescence, dose response (AID 1891).
Test [6] can be described thus: luciferase reporter signal suppression in cells – H4 neuroglioma cells, luminescence, dose response (AID 1990). In kind it is functional, cell-based. In general terms: In a reporter assay the amount or activity of a reporter protein is the signal.
Test [7] is described as follows: Luminescence Cell-Based Dose Response HTS to Identify Inhibitors of 5'UTR Stem-Loop Driven Prion Protein mRNA Translation in H4 Neuroglioblastoma Cells. [Related pubchem assays: 1827 (Project Summary), 1813 (Primary HTS)]. The test is classed as functional.
A short description of test [8]: alpha-synuclein stem-loop luciferase translation blockers – H4 neuroglioma cells, luminescence, confirmation (AID 1988). In kind it is functional, cell-based.
The subject of test [9] is INS1. In words: INS-1E survival protection against cytokine death – cell-based, luminescence, retest, dose response (AID 449756).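 Also: cell death triggered by IL-1 beta plus TNF-alpha plus IFN-gamma mixture; protective hits raise ATP signal compared with cytokine alone wells.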 The test is classed as functional. The following applies: Rattus norvegicus.
The nature of test [10]: NIH-3T3 fibroblast cytotoxicity, dose response, cytotoxicity control, cell-based, fluorescence, Alamar Blue, secondary assay (AID 2327).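 Also: NIH-3T3 mouse fibroblasts cultured with fluconazole at 8 µg/mL.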 In kind it is functional. For orientation: Resazurin is reduced to fluorescent resorufin, in cell work by metabolically active cells.
Test [11] deals with T2, Cytochrome P450 1A2 (Homo sapiens, UniProt P05177).
T2 sequence (P05177 whole entry): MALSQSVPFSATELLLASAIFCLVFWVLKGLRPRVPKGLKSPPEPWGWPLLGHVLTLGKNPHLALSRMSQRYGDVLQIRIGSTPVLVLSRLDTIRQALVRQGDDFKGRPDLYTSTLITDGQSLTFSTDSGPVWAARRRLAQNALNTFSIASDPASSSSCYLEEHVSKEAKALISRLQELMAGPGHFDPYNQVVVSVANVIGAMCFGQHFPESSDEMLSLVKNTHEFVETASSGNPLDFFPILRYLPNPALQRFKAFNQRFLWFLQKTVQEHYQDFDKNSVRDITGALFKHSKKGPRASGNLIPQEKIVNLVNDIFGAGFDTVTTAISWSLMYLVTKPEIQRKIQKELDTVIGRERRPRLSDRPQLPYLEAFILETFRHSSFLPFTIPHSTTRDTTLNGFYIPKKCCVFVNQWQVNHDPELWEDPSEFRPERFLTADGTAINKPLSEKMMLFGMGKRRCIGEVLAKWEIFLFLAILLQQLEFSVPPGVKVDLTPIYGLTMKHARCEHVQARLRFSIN

The target in test [12] is Cytochrome P450 2D6 (Homo sapiens, UniProt P10635).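 Also: CYP2D6 member of a cytochrome P450 panel assay.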
Cytochrome P450 2D6, sequence (P10635 whole entry): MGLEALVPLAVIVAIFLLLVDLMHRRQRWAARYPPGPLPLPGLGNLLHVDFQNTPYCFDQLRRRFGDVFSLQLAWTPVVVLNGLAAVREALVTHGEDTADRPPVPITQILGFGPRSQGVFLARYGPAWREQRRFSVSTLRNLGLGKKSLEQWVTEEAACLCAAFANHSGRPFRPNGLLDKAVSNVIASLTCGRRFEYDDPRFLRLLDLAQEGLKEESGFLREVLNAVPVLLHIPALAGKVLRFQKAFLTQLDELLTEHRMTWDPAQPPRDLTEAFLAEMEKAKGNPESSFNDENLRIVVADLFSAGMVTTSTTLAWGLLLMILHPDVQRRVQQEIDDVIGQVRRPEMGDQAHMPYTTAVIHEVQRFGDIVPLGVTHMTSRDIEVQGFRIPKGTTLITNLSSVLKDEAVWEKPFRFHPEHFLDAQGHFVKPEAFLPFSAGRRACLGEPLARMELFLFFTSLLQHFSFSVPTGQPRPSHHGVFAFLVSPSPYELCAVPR
Test [13] deals with Cytochrome P450 3A4 (Homo sapiens, UniProt P08684).
Cytochrome P450 3A4, sequence (P08684 whole entry): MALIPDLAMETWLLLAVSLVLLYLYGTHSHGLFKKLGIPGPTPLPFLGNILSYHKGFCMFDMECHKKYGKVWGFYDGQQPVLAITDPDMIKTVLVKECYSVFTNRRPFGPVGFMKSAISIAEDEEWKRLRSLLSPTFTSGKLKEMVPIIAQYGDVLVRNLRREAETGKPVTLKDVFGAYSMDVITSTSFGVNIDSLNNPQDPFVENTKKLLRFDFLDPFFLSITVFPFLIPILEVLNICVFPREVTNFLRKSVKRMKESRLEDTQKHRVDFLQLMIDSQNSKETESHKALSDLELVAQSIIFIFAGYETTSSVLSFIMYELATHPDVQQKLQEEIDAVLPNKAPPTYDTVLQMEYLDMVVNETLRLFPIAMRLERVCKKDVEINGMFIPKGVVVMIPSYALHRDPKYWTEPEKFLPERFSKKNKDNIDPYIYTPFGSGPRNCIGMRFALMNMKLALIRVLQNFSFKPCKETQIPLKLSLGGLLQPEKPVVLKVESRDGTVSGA
Test [14] has as its target Cytochrome P450 2C19 (Homo sapiens, UniProt P33261). Description: Cytochrome panel assay with activity outcomes. Panel member name: p450-cyp2c19 Compounds with AC50 equal or less than 10 uM are considered active. In kind it is functional. The settings on record: read-out: AC50.
The target of test [15] is Cytochrome P450 2C9 (Homo sapiens, UniProt P11712).
Cytochrome P450 2C9, sequence (P11712 whole entry): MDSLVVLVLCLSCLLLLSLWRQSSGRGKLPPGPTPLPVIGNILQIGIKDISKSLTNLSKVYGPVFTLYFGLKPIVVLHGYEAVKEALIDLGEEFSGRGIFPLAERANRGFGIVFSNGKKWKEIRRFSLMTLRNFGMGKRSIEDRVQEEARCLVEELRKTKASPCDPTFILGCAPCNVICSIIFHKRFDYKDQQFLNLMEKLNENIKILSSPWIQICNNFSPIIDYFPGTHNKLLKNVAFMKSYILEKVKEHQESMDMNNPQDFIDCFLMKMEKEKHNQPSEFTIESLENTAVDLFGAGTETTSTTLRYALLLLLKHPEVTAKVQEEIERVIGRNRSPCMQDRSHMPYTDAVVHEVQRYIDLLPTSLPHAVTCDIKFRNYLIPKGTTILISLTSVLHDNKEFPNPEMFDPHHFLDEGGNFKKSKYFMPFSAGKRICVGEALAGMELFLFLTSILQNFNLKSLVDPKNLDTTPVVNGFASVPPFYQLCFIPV

Luciferin 4-monooxygenase, sequence (P08659 whole entry): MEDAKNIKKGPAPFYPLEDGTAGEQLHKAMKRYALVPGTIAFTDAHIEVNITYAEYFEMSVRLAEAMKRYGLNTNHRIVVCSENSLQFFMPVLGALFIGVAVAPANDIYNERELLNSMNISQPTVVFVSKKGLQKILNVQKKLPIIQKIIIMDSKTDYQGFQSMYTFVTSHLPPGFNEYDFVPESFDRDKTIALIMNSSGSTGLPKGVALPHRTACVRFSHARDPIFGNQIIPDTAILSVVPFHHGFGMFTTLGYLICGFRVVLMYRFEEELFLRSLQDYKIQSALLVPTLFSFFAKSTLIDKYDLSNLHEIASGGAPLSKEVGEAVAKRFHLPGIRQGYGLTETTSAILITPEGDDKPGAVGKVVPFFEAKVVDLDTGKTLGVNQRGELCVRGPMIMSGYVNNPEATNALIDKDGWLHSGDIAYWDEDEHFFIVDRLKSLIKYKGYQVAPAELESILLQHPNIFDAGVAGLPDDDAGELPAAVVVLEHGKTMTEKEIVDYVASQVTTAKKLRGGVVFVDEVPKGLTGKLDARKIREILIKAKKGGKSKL
Cytochrome P450 2C19, sequence (P33261 whole entry): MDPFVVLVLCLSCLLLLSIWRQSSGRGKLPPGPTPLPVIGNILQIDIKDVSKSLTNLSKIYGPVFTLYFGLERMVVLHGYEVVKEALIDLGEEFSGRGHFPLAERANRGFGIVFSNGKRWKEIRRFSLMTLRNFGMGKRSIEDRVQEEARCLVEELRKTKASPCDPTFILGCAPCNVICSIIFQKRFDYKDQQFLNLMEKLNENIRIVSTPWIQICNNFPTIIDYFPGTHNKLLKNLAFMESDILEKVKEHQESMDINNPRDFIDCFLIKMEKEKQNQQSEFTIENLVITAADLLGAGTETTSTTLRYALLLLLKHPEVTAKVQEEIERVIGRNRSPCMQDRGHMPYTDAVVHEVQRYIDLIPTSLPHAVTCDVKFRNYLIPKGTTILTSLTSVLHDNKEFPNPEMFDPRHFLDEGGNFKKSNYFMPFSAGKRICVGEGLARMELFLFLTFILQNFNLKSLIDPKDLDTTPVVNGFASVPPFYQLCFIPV

On to `CC1(C)Cc2c(C#N)c(NCC3CCCO3)nc(-c3ccco3)c2CO1` (stereo unspecified), for which, in [1], the IC50 is > 47.1 µM (inactive). For the same compound, the EC50 in [2] was > 53 µM (inactive).

`CC(=O)OC(C)(C)/C=C/C(=O)C(C)(O)C1C(O)CC2(C)C3CC=C4C(CC(O)C(=O)C4(C)C)C3(C)C(=O)CC12C` (stereo unspecified): the AC50 in test [3] is < 0.26 µM (active).

`COc1cccc(-c2noc(C3CCCN(C(=O)c4ccccc4OC)C3)n2)c1` (stereo unspecified): the EC50 in test [4] and in test [5] was > 112 µM (not active) throughout.

Turning to `CCN(CC)c1nc(O)nc(N(CC)CC)n1`, the EC50 was > 120 µM (not active) in [6], > 120 µM (not active) in test [7] and 44.7 µM (active) in test [8].

Regarding `COc1ccc(NC(=O)Nc2ccc3c(c2)C(=O)N([C@@H](C)CO)C[C@@H](C)[C@@H](CN(C)CC2CCCCC2)OCCCC[C@@H](C)O3)cc1`, the AC50 in [3] was 14.5 µM (active).

In the case of `CN(C)P(=O)(NC(=O)c1cccn1C)N(C)C`, in test [1], the IC50 is > 47.1 µM (inactive). For the same compound, in test [2], the EC50 was > 53 µM (inactive).

For `COc1ccc2c(c1)O[C@@H](c1cccc(C(F)(F)F)c1)[C@H](O)C2=O`, the EC50 in test [6], in test [7] and in test [8] was > 120 µM (not active) in each case.

Take `c1ccc(-[n+]2nc(Nc3cccc4ccccc34)sc2-c2c3ccccc3cc3ccccc23)cc1`: the concentration at half-maximal activity (AC50) in test [9] was 3.17 µM (active).

For the compound `Cc1cc(Cl)ccc1OCc1cn2cccnc2n1`, the EC50 in [10] was > 160 µM (inactive).

With `FC(F)(F)c1ccccc1-c1cc(NCCN2CCOCC2)ncn1`, the AC50 in [11] was 12.6 µM (inconclusive); in [12], 39.8 µM (inconclusive).

In the case of `CC(C)(C)C1CCc2c(sc(NC(=O)c3cc(C4CC4)on3)c2C#N)C1` (stereo unspecified), the EC50 in [4] is 23.1 µM (active); in test [5], > 112 µM (not active).

For the compound `COc1cc(C#Cc2c(-c3ccccc3)n(C)c3ccccc23)cc(OC)c1`, the IC50 in test [1] is > 47.1 µM (inactive). In addition, in test [2], the EC50 is > 53 µM (inactive).

Regarding `CC(NC(=O)c1cccc(F)c1)C(c1cccs1)N1CCN(C)CC1` (stereo unspecified), the results for the AC50 in test [12], in test [13] and in [14] were 15.8 µM (inconclusive), 15.8 µM (inconclusive) and 31.6 µM (inconclusive), respectively.

As for `C=CCO/C(O)=C1\C(C)=NC2(O)c3ccccc3C(=O)C12O` (stereo unspecified), the IC50 in test [1] was > 47.1 µM (inactive). The EC50 in [2] is > 53 µM (inactive).

Consider `C=CCOc1c(CNc2cccc(C(=O)O)c2)cccc1OCC`, for which the IC50 in [1] was > 47.1 µM (inactive). Besides, in test [2], the EC50 was > 53 µM (inactive).

Regarding `COC(=O)/C=C1/SC(NNC(=O)c2ccc(Cl)cc2Cl)=NC1=O`, in test [1], the IC50 is > 47.1 µM (inactive). For the same compound, the EC50 in [2] was > 53 µM (inactive).

As for `Cc1sc(NC(=O)c2ccco2)c(C(c2cccnc2)N2CCN(C)CC2)c1C` (stereo unspecified), the concentration at half-maximal activity (AC50) was 2.82 µM (inconclusive) in test [15] and 12.6 µM (inconclusive) in test [12].

Regarding `CCOC(=O)C(NCCc1ccc(F)cc1)(NC(=O)CC)C(F)(F)F` (stereo unspecified), the AC50 in test [9] is > 260 µM (inactive).

For `COc1ccccc1Nc1ccc(S(=O)(=O)N2CCCCC2)cc1[N+](=O)[O-]`, in test [1], the IC50 was > 47.1 µM (inactive). The EC50 in [2] was > 53 µM (inactive).

`CC1C(C#N)=C(N)OC2=C1C(=O)CC(C)(C)C2` (stereo unspecified): the EC50 in test [6] is > 120 µM (not active); in test [7] it was > 120 µM (not active); in test [8], 19.8 µM (active).

With `COC(=O)C1(C)CN(S(=O)(=O)c2ccc(C)cc2)c2cc(OC)ccc2C1=O` (stereo unspecified), the EC50 in test [4] and in test [5] was > 112 µM (not active) in each case.

`Cc1ccccc1N1CCN(C2CCCN(C(=O)c3cn4c(C)cccc4n3)C2)CC1` (stereo unspecified): in test [1], the IC50 is > 47.1 µM (inactive). For the same compound, the EC50 in [2] was > 53 µM (inactive).

On to `COCCn1c(SCc2nnc(-c3ccccc3)o2)nc2sc3c(c2c1=O)CCC3`, for which the IC50 in test [1] was > 47.1 µM (inactive). Also, in test [2], the EC50 is > 53 µM (inactive).

Take `CCOC(=O)c1ccc(NC(=O)CSc2nc3c(c(=O)n2C)SC(C)C3)cc1` (stereo unspecified): the EC50 in test [4] and in test [5] was > 112 µM (not active) throughout.

Consider `Cc1nc2sccn2c(=O)c1S(=O)(=O)N1CCN(c2cccc(Cl)c2)CC1`, for which the EC50 in test [4] and in test [5] was > 112 µM (not active) each time.

Consider `Cc1ccc(NC(=O)COC(=O)c2cccnc2Cl)cc1S(=O)(=O)N1CCOCC1`, for which the IC50 in test [1] was > 47.1 µM (inactive). Besides, the EC50 in test [2] is > 53 µM (inactive).

In the case of `CC(C)CNC(=O)COc1ccccc1[N+](=O)[O-]`, the EC50 is 18.7 µM (active) in test [4] and > 112 µM (not active) in [5].

Turning to `Nc1nnc(SCc2ccc(Cl)cc2)s1`, the EC50 in [4] and in test [5] was > 112 µM (not active) in each case.

On to `Cc1ccc(Cl)cc1NC(=O)c1ccc(Cn2cc(Cl)cn2)cc1`, for which the EC50 in [6] was 14.4 µM (active); in [7], 13.7 µM (active); in [8], 12.2 µM (active).

On to `Cc1cc(=O)oc2cc(OCCSCCN3CCOCC3)ccc12`, for which the EC50 in [4] and in test [5] was > 112 µM (not active) each time.

As for `CN(C)S(=O)(=O)c1cccc(NC(=O)CSc2nnnn2-c2ccccc2)c1`, the EC50 in test [4] and in [5] was > 112 µM (not active) each time.

As for `COCCn1c(=O)c(-c2ccc(F)cc2)nc2cnc(N(C)C)nc21`, the AC50 is 12.6 µM (inconclusive) in test [15] and 0.631 µM (inconclusive) in test [12].

As to `C[C@@H]1CN([C@@H](C)CO)C(=O)c2cc(NS(=O)(=O)c3ccccc3)ccc2O[C@@H](C)CCCCO[C@@H]1CN(C)Cc1ccc(C(F)(F)F)cc1`, the AC50 in [3] is 5.71 µM (active).

With `CC(C)(C)c1ccc(Oc2ccc(NC(=O)c3ccccc3C(=O)O)cn2)cc1`, the EC50 in [6] is 11 µM (active); in test [7], 12 µM (active); in test [8], 11.6 µM (active).

On to `Cc1cc(NC(=O)c2c(F)cccc2F)n(-c2nc3ccccc3[nH]2)n1`, for which the AC50 was 4.47 µM (inconclusive) in test [15], 39.8 µM (inconclusive) in test [12] and 3.55 µM (inconclusive) in [13].

For `O=C(Oc1ccc([N+](=O)[O-])cc1)N1CCC(N2CCCCC2)CC1`, the AC50 in test [11] is 20 µM (inconclusive); in [12], 39.8 µM (inconclusive).

On to `O=C(/C=C\C=C/c1ccc2c(c1)OCO2)N1CCCCC1`, for which the AC50 in test [12] was 12.6 µM (inconclusive).

Regarding `O=C(NCCc1csc(-c2cccnc2)n1)c1cccs1`, the EC50 in test [4] and in test [5] was > 112 µM (not active) in each case.

The values are drawn from ChEMBL document CHEMBL1201862, “PubChem BioAssay data set” (2004).
